Reference: US20250221410A1, “SUBSTITUTED 2-C-AZINES AND SALTS THEREOF, AND USE THEREOF AS HERBICIDAL ACTIVE SUBSTANCES” (BAYER AKTIENGESELLSCHAFT, priority 2022, published 2025)

What was measured:
Format in all cases: in vivo
VERPE: Veronica persica [1] = test: Post-emergence herbicidal efficacy at 1280 g/ha, VERPE; conditions: visual rating about 3 weeks after treatment vs untreated controls
Method: (§1) Seeds of mono- and dicotyledonous weed plants were placed in plastic pots in sandy loam soil (doubly sown with in each case one species of mono- or dicotyledonous weed plants per pot), covered with soil and cultivated in a greenhouse under controlled growth conditions. 2 to 3 weeks after sowing, the test plants were treated at the one-leaf stage. The compounds of the invention, formulated in the form of wettable powders (WP) or as emulsion concentrates (EC), were applied to the green parts of the plants as aqueous suspension or emulsion with addition of 0.5% additive at a water application rate equivalent to 600 litres per hectare. After the test plants had been kept in the greenhouse under optimum growth conditions for about 3 weeks, the activity of the preparations was rated visually in comparison to untreated controls. For example, 100% activity=the plants have died, 0% activity=like control plants. Tables A1 to A12 below show the effects of selected compounds of the general formula (I) according to Table 1 on various harmful plants and at an application rate corresponding to 1280 g/ha, which were obtained by the trial procedure specified above.

[2] = tested on: AMARE: Amaranthus retroflexus; test: Post-emergence herbicidal efficacy at 1280 g/ha, AMARE; conditions: rated visually after about 3 weeks vs untreated controls, 100% = plants have died, 0% = like control plants
Method: as §1

[3] = tested on: AMARE: Amaranthus retroflexus; test: Pre-emergence herbicide efficacy at 1280 g/ha, AMARE; conditions: visual scoring after about 3 weeks vs untreated controls
From the text: (§2) Seeds of mono- and dicotyledonous weed plants were placed in plastic pots in sandy loam soil (doubly sown with one species each of mono- or dicotyledonous weed plants per pot) and covered with soil. The compounds of the invention, formulated in the form of wettable powders (WP) or as emulsion concentrates (EC), were then applied to the surface of the covering soil as aqueous suspension or emulsion with addition of 0.5% additive at a water application rate of 600 litres per hectare (converted). After the treatment, the pots were placed in a greenhouse and kept under good growth conditions for the test plants. After about 3 weeks, the efficacy of the preparations was scored visually in comparison with untreated controls as percentages. For example, 100% activity=the plants have died, 0% activity=like control plants. Tables C1 to C12 below show the effects of selected compounds of the general formula (I) according to Table 1 on various harmful plants and at an application rate corresponding to 1280 g/ha, which were obtained by the trial procedure specified above.

STEME: Stellaria media [4] = test: Post-emergence herbicidal efficacy at 1280 g/ha, STEME; conditions: visual rating about 3 weeks after treatment vs untreated controls
Method: as §1

[5] = tested on: ABUTH: Abutilon theophrasti; test: Pre-emergence herbicide efficacy at 1280 g/ha, ABUTH; conditions: visual scoring after about 3 weeks vs untreated controls
From the text: as §2

KCHSC: Kochia scoparia = test: Post-emergence herbicidal efficacy at 1280 g/ha, KCHSC; conditions: visual rating about 3 weeks after treatment vs untreated controls
Method: as §1

POAAN: Poa annua [6] = test: Post-emergence herbicidal efficacy at 1280 g/ha, POAAN; conditions: visual rating about 3 weeks after treatment vs untreated controls
Method: as §1

[7] = tested on: ABUTH: Abutilon theophrasti; test: Post-emergence herbicidal efficacy at 1280 g/ha, ABUTH; conditions: rated visually after about 3 weeks vs untreated controls, 100% = plants have died, 0% = like control plants
Method: as §1

POAAN: Poa annua [8] = test: Pre-emergence herbicide efficacy at 1280 g/ha, POAAN; conditions: visual scoring after about 3 weeks vs untreated controls
From the text: as §2

[9] = tested on: ECHCG: Echinochloa crus-galli; test: Pre-emergence herbicide efficacy at 1280 g/ha, ECHCG; conditions: visual scoring after about 3 weeks vs untreated controls
From the text: as §2

STEME: Stellaria media [10] = test: Pre-emergence herbicide efficacy at 1280 g/ha, STEME; conditions: visual scoring vs untreated controls
From the text: as §2

SETVI: Setaria viridis = test: Pre-emergence herbicide efficacy at 1280 g/ha, SETVI; conditions: visual scoring vs untreated controls
From the text: as §2

[11] = tested on: DIGSA: Digitaria sanguinalis; test: Pre-emergence herbicide efficacy at 1280 g/ha, DIGSA; conditions: visual scoring after about 3 weeks vs untreated controls
From the text: as §2

VERPE: Veronica persica [12] = test: Pre-emergence herbicide efficacy at 1280 g/ha, VERPE; conditions: visual scoring vs untreated controls
From the text: as §2

Row | Structure (SMILES) | Post-emergence efficacy against VERPE (VERPE: Veronica persica [1]) [%] | Post-emergence efficacy at 1280 g/ha against AMARE in % [2] [%] | Pre-emergence efficacy against AMARE [3] [%] | Post-emergence efficacy against STEME (STEME: Stellaria media [4]) [%] | Pre-emergence efficacy against ABUTH [5] [%] | Post-emergence efficacy against KCHSC (KCHSC: Kochia scoparia) [%] | Post-emergence efficacy against POAAN (POAAN: Poa annua [6]) [%] | Post-emergence efficacy at 1280 g/ha against ABUTH in % [7] [%] | Pre-emergence efficacy against POAAN (POAAN: Poa annua [8]) [%] | Pre-emergence efficacy against ECHCG [9] [%] | Pre-emergence efficacy against STEME in % (STEME: Stellaria media [10]) [%] | Pre-emergence efficacy against SETVI in % (SETVI: Setaria viridis) [%] | Pre-emergence efficacy against DIGSA [11] [%] | Pre-emergence efficacy against VERPE in % (VERPE: Veronica persica [12]) [%]
1 | Cc1cccc(C(C#N)c2ncc(Cl)cn2)c1Oc1ccc(F)cc1 (racemic) [Example 1-30] | 90 |  |  |  |  |  |  |  |  |  |  |  |  | 
2 | COc1cccc(C(C#N)c2ncc(Cl)cn2)c1Oc1ccc(F)cc1 (racemic) [Example 1-32] | 90 | 90 | 90 | 90 |  |  |  |  |  |  |  |  |  | 
3 | N#CC(c1ncc(Cl)cn1)c1cccc(Br)c1Oc1ccc(F)cc1 (racemic) [Example 1-36] | 90 |  |  |  |  |  |  |  |  |  |  |  |  | 
4 | N#CC(c1ncc(Cl)cn1)c1cccc(C(F)(F)F)c1Oc1ccc(F)cc1 (racemic) [Example 1-39] | 100 |  |  |  | 100 | 90 |  |  |  |  |  |  |  | 
5 | N#CC(c1ncc(Cl)cn1)c1ccccc1-n1cc(C(F)(F)F)cn1 (racemic) [Example 1-41] | 90 | 90 |  |  |  |  | 90 | 90 | 90 |  |  |  |  | 
6 | Fc1cnc(Cc2ccccc2CCCC(F)(F)F)nc1 [Example 1-3] | 90 | 90 |  | 90 |  | 90 | 100 | 90 |  |  |  |  |  | 
7 | FC(F)(F)CCCOc1ccccc1Cc1ncc(Cl)cn1 [Example 1-8] | 100 |  | 100 | 90 |  |  |  |  |  | 90 | 90 | 90 | 100 | 
8 | COc1cccc(Cc2ncc(Cl)cn2)c1Oc1ccc(F)cc1 [Example 1-33] | 90 |  | 100 | 90 |  |  | 90 |  | 100 |  | 90 | 100 |  | 100
9 | N#CC(c1ncc(Cl)cn1)c1cccc(F)c1Oc1ccc(F)cc1 (centres unmarked) [Example 1-34, (5-Chloropyrimidin-2-yl)[3-fluoro-2-(4-fluorophenoxy)phenyl]acetonitrile] | 100 | 90 | 90 | 90 |  |  |  |  |  |  | 90 |  |  | 
10 | Fc1cccc(OCCCC(F)(F)F)c1Cc1ncc(Cl)cn1 [Example 1-60] | 100 |  |  |  |  |  |  |  | 90 |  |  |  |  | 90
11 | N#CC(c1ncc(Cl)cn1)c1ccccc1CCCC(F)(F)F (centres unmarked) [Example 1-68] |  | 100 |  |  |  |  |  |  |  |  |  |  |  | 
12 | N#CC(c1ncc(Cl)cn1)c1ccccc1Cc1ccc(F)cc1 (centres unmarked) [Example 1-69] | 100 | 90 |  | 90 | 100 | 90 |  |  |  |  |  |  |  | 
13 | N#Cc1cccc(C(C#N)c2ncc(Cl)cn2)c1-n1cc(C(F)(F)F)cn1 (centres unmarked) [Example 1-71] | 90 | 100 | 100 | 90 |  | 100 |  |  |  |  | 90 |  |  | 
14 | N#CC(c1ncc(F)cn1)c1ccccc1CCCC(F)(F)F (centres unmarked) [Example 1-72] |  |  |  |  |  |  |  |  | 90 |  |  |  |  | 
15 | N#CC(c1ccc(Cl)cn1)c1ccccc1CCCC(F)(F)F (centres unmarked) [Example 1-73] | 90 | 90 | 90 |  |  |  |  |  |  |  |  |  |  | 
16 | Fc1cc(Cl)cnc1Oc1ccccc1Cc1ncccn1 [Example 1-77] | 90 | 90 | 100 | 90 | 90 |  | 90 |  | 90 |  | 90 |  | 90 | 
17 | N#CC(c1ncc(Cl)cn1)c1ccccc1-c1ccc(F)c(F)c1 (centres unmarked) [Example 1-78] |  | 90 |  |  |  |  |  |  | 90 |  |  |  |  | 
18 | N#CC(c1ncc(F)cn1)c1ccccc1-c1ccc(F)c(F)c1 (centres unmarked) [Example 1-79] |  |  |  |  |  |  |  |  | 90 |  |  |  |  | 
19 | N#CC(c1ccc(Cl)cn1)c1ccccc1-c1ccc(F)c(F)c1 (centres unmarked) [Example 1-80] | 90 | 100 | 100 | 90 | 90 |  |  |  | 90 |  | 100 |  |  | 
20 | N#CC(c1ccc(Cl)cn1)c1ccccc1Cc1ccc(F)cc1 (centres unmarked) [Example 1-82] | 90 | 100 | 100 |  | 100 | 90 |  |  | 90 |  | 100 |  |  | 
21 | FC(F)(F)CCCc1ccccc1Cc1ccc(Cl)cn1 [Example 1-94] | 100 | 90 |  |  |  |  | 90 |  |  |  |  |  |  | 
22 | Fc1ccc(-c2ccccc2Cc2ccc(Cl)cn2)cc1F [Example 1-97] | 100 | 100 | 100 | 90 |  | 100 | 100 | 100 |  |  |  |  |  | 
23 | Fc1ccc(Sc2ccccc2Cc2ccc(Cl)cn2)cc1 [Example 1-105] | 90 | 90 | 100 | 90 |  | 90 | 90 | 90 | 100 | 90 | 90 |  |  | 100
24 | Fc1cnc(Cc2ccccc2SCCC(F)(F)F)nc1 [Example 1-111] | 100 | 100 | 100 | 100 |  | 100 | 100 | 90 |  |  |  |  | 90 | 
25 | Clc1cnc(Cc2ccccc2Sc2ccc(Cl)cc2Cl)nc1 [Example 1-137] | 90 | 100 | 100 | 90 |  | 90 | 90 | 90 | 90 |  | 100 | 100 |  | 
26 | Cc1cc(C)c(-c2cc(C(F)F)no2)c(C(C#N)c2ncc(Cl)cn2)n1 (centres unmarked) [Example 2-6] |  |  | 90 |  | 100 |  |  |  |  |  | 100 |  | 90 | 
